Laboratory results: patent US20250042881A1, “CCR6 RECEPTOR MODULATORS” (Idorsia Pharmaceuticals Ltd, priority 2021, published 2025)

Molecular target: T1, human CCR6 (Homo sapiens, UniProt P51684)
T1 construct: expressed in transfected cells; host or cells: HEK-293
T1 sequence (P51684 1-374): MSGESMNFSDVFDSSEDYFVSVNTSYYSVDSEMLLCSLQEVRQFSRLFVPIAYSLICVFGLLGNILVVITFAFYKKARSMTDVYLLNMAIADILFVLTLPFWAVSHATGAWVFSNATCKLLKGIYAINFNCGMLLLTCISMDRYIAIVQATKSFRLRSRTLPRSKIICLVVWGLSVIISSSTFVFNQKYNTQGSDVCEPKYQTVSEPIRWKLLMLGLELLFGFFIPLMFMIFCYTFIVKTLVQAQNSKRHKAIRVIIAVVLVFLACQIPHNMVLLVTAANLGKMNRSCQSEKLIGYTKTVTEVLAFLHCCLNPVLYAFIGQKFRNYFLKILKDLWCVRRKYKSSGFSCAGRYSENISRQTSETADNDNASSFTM
Assay: FLIPR assay: inhibition of CCL20-induced calcium signal in HEK-293 cells expressing human CCR6
Type: cell-based
Settings: engineered HEK-293 cells expressing human CCR6; agonist CCL20 10 nM; 30 min preincubation; Fluo-8-AM; mean values if determined several times
Procedure: FLIPR assay: The bioactivity of compounds is tested in a fluorometric imaging plate reader (FLIPR: Molecular Devices) using engineered HEK-293 cells expressing the human CCR6 (GenBank: AY242126). Frozen cells are plated on Poly-L-Lysine precoated 384-well plates 2 days prior to bioassay in DMEM medium supplemented with 10% FCS and 1% Penicillin-Streptomycin. At the day of bioassay, cell supernatant is discarded and cells are dye loaded for 30 minutes at room temperature in the dark with Fluo-8-AM (Focus Biomolecules) in Hanks Balanced Salt Solution (Gibco), buffered with 20 mM Hepes at pH 6.75 and supplemented with 0.05% BSA. This buffer, but lacking the dye, is also used for washing and compound dilution steps (assay buffer). Cells are washed free of excess dye with a wash-station (Biotek), leaving 40 microliter of assay buffer at the end. Cells were incubated for 15 minutes at room temperature in the dark, before adding compounds. Stock solutions of test compounds are made up at a concentration of 10 mM in DMSO, and serially diluted first in DMSO and then transferred in assay buffer to concentrations required for inhibition dose response curves. After a 45 minute incubation period in assay buffer at room temperature, 10 microliters of each compound dilution are transferred from a compound plate to the plate containing the recombinant cells in the FLIPR instrument according to the manufacturer's instructions. After cells and compounds were preincubated for 30 minutes at room temperature in the dark, 10 microliter agonist CCL20 (Peprotech) at a final concentration of 10 nM is added, again using the FLIPR instrument. Changes in fluorescence are monitored before and after addition of the test compounds and agonist. Emission peak values above base level after CCL20 addition are exported after base line subtraction. The calculated IC50 values may fluctuate depending on the daily assay performance. Fluctuations of this kind are known to those skilled in the art. In the case where IC50 values have been determined several times for the same compound, mean values are given.

| SMILES | IC50 [nM] |
| --- | --- |
| CC(C)c1ccc([C@](O)(c2cncc(-c3nc(C4CCOCC4)n(CC(C)(F)F)n3)c2)C2(C)CN(C)C2)cc1 [Example 22, (R)-{5-[1-(2,2-Difluoro-propyl)-5-(tetrahydro-pyran-4-yl)-1H-[1,2,4]triazol-3-yl]-pyridin-3-yl}-(1,3-dimethyl-azetidin-3-yl)-(4-isopropyl-phenyl)-methanol] | 81.6 |
| CC(C)c1ccc([C@](O)(c2cncc(-c3nc(C4CCOCC4)n(C4CCC4)n3)c2)C2(C)CN(C)C2)cc1 [Example 23, (R)-{5-[1-Cyclobutyl-5-(tetrahydro-pyran-4-yl)-1H-[1,2,4]triazol-3-yl]-pyridin-3-yl}-(1,3-dimethyl-azetidin-3-yl)-(4-isopropyl-phenyl)-methanol] | 57.8 |
| CC(C)c1ccc([C@](O)(c2cncc(-c3nc(-c4cccnc4)n(C4CC4)n3)c2)C2(C)CN(C)C2)cc1 [Example 24, (R)-[5-(1-Cyclopropyl-5-pyridin-3-yl-1H-[1,2,4]triazol-3-yl)-pyridin-3-yl]-(1,3-dimethyl-azetidin-3-yl)-(4-isopropyl-phenyl)-methanol] | 50.1 |
| CN1CC(C)([C@](O)(c2ccc(C3CC3)cc2)c2cncc(-c3nc(C4CCOCC4)n(C4CC4)n3)c2)C1 [Example 25, (R)-(4-Cyclopropyl-phenyl)-{5-[1-cyclopropyl-5-(tetrahydro-pyran-4-yl)-1H-[1,2,4]triazol-3-yl]-pyridin-3-yl}-(1,3-dimethyl-azetidin-3-yl)-methanol] | 163 |
| CC(C)c1ccc([C@](O)(c2cncc(-c3nc(C(C)(C)O)n(C4CC4)n3)c2)C2(C)CN(C)C2)cc1 [Example 26, 2-(2-Cyclopropyl-5-{5-[(R)-(1,3-dimethyl-azetidin-3-yl)-hydroxy-(4-isopropyl-phenyl)-methyl]-pyridin-3-yl}-2H-[1,2,4]triazol-3-yl)-propan-2-ol] | 46.4 |
| CC(C)c1ccc([C@](O)(c2cncc(-c3nc(C(C)(C)O)n(C(C)C)n3)c2)C2(C)CN(C)C2)cc1 [Example 27, 2-(5-{5-[(R)-(1,3-Dimethyl-azetidin-3-yl)-hydroxy-(4-isopropyl-phenyl)-methyl]-pyridin-3-yl}-2-isopropyl-2H-[1,2,4]triazol-3-yl)-propan-2-ol] | 59.5 |
| CC(C)c1ccc([C@](O)(c2cncc(-c3nc(C45CC(CO)(C4)C5)n(C4CC4)n3)c2)C2(C)CN(C)C2)cc1 [Example 28, (R)-{5-[1-Cyclopropyl-5-(3-hydroxymethyl-bicyclo[1.1.1]pent-1-yl)-1H-[1,2,4]triazol-3-yl]-pyridin-3-yl}-(1,3-dimethyl-azetidin-3-yl)-(4-isopropyl-phenyl)-methanol] | 61.1 |
| CC(C)c1ccc([C@](O)(c2cncc(-c3nc(C45CC(CO)(C4)C5)n(C(C)C)n3)c2)C2(C)CN(C)C2)cc1 [Example 29, (R)-(1,3-Dimethyl-azetidin-3-yl)-{5-[5-(3-hydroxymethyl-bicyclo[1.1.1]pent-1-yl)-1-isopropyl-1H-[1,2,4]triazol-3-yl]-pyridin-3-yl}-(4-isopropyl-phenyl)-methanol] | 78.7 |
| CC(C)c1ccc([C@](O)(c2cncc(-c3nc(C4(O)CCOCC4)n(C4CC4)n3)c2)C2(C)CN(C)C2)cc1 [Example 30, 4-(2-Cyclopropyl-5-{5-[(R)-(1,3-dimethyl-azetidin-3-yl)-hydroxy-(4-isopropyl-phenyl)-methyl]-pyridin-3-yl}-2H-[1,2,4]triazol-3-yl)-tetrahydro-pyran-4-ol] | 98.1 |
| CC(C)c1ccc([C@](O)(c2cncc(-c3nc(C4(O)CCOCC4)n(C(C)C)n3)c2)C2(C)CN(C)C2)cc1 [Example 31, 4-(5-{5-[(R)-(1,3-Dimethyl-azetidin-3-yl)-hydroxy-(4-isopropyl-phenyl)-methyl]-pyridin-3-yl}-2-isopropyl-2H-[1,2,4]triazol-3-yl)-tetrahydro-pyran-4-ol] | 86.3 |
| CC(=O)N1CCC(c2nc(-c3cncc([C@@](O)(c4ccc(C(C)C)cc4)C4(C)CN(C)C4)c3)nn2C2CC2)CC1 [Example 32, 1-[4-(2-Cyclopropyl-5-{5-[(R)-(1,3-dimethyl-azetidin-3-yl)-hydroxy-(4-isopropyl-phenyl)-methyl]-pyridin-3-yl}-2H-[1,2,4]triazol-3-yl)-piperidin-1-yl]-ethanone] | 181 |
| CC(=O)N1CCC(c2nc(-c3cncc([C@@](O)(c4ccc(C(C)C)cc4)C4(C)CN(C)C4)c3)nn2C(C)C)CC1 [Example 33, 1-[4-(5-{5-[(R)-(1,3-Dimethyl-azetidin-3-yl)-hydroxy-(4-isopropyl-phenyl)-methyl]-pyridin-3-yl}-2-isopropyl-2H-[1,2,4]triazol-3-yl)-piperidin-1-yl]-ethanone] | 182 |

The remaining lines, values ahead:

| IC50 [nM] | SMILES |
| --- | --- |
| 63.8 | CC(C)c1ccc([C@](O)(c2cncc(-c3nc(C4CCOCC4)n(C4CC4)n3)c2)C2(C)CN(C(C)C)C2)cc1 [Example 34, (R)-{5-[1-Cyclopropyl-5-(tetrahydro-pyran-4-yl)-1H-[1,2,4]triazol-3-yl]-pyridin-3-yl}-(1-isopropyl-3-methyl-azetidin-3-yl)-(4-isopropyl-phenyl)-methanol] |
| 72.6 | CC(C)c1ccc([C@](O)(c2cncc(-c3nc(C4CCOCC4)n(C4CC4)n3)c2)C2(C)CN(CC(F)F)C2)cc1 [Example 35, (R)-{5-[1-Cyclopropyl-5-(tetrahydro-pyran-4-yl)-1H-[1,2,4]triazol-3-yl]-pyridin-3-yl}-[1-(2,2-difluoro-ethyl)-3-methyl-azetidin-3-yl]-(4-isopropyl-phenyl)-methanol] |
| 116 | CC(C)c1ccc([C@](O)(c2cncc(-c3nc(C4CCOCC4)n(C4CC4)n3)c2)C2(C)CN(CCO)C2)cc1 [Example 36, 2-{3-[(R)-{5-[1-Cyclopropyl-5-(tetrahydro-pyran-4-yl)-1H-[1,2,4]triazol-3-yl]-pyridin-3-yl}-hydroxy-(4-isopropyl-phenyl)-methyl]-3-methyl-azetidin-1-yl}-ethanol] |
| 104 | CC(C)c1ccc([C@](O)(c2cncc(-c3nc(C(C)(C)O)n(C4CC4)n3)c2)C2(C)CNC2)cc1 [Example 37, 2-(2-Cyclopropyl-5-{5-[(R)-hydroxy-(4-isopropyl-phenyl)-(3-methyl-azetidin-3-yl)-methyl]-pyridin-3-yl}-2H-[1,2,4]triazol-3-yl)-propan-2-ol] |
| 78.1 | CC(C)c1ccc([C@](O)(c2cncc(-c3nc(C4CCOCC4)n(C4CC4)n3)c2)C2(C)CN(C)C2)cc1F [Example 38, (R)-{5-[1-Cyclopropyl-5-(tetrahydro-pyran-4-yl)-1H-[1,2,4]triazol-3-yl]-pyridin-3-yl}-(1,3-dimethyl-azetidin-3-yl)-(3-fluoro-4-isopropyl-phenyl)-methanol] |
| 76.6 | CC(C)c1ccc([C@](O)(c2cnc(F)c(-c3nc([C@H]4CC[C@H](O)CC4)n(C4CC4)n3)c2)C2(C)CN(C)C2)cc1 [Example 39, 4-(2-Cyclopropyl-5-{5-[(R)-(1,3-dimethyl-azetidin-3-yl)-hydroxy-(4-isopropyl-phenyl)-methyl]-2-fluoro-pyridin-3-yl}-2H-[1,2,4]triazol-3-yl)-trans-cyclohexanol] |
| 202 | Cc1ncc([C@@](O)(c2ccc(C(C)C)cc2)C2(C)CN(C)C2)cc1-c1nc([C@H]2CC[C@H](O)CC2)n(C2CC2)n1 [Example 40, 4-(2-Cyclopropyl-5-{5-[(R)-(1,3-dimethyl-azetidin-3-yl)-hydroxy-(4-isopropyl-phenyl)-methyl]-2-methyl-pyridin-3-yl}-2H-[1,2,4]triazol-3-yl)-trans-cyclohexanol] |
| 45.3 | CCCc1nc(-c2cncc([C@@](O)(c3ccc(C(C)C)cc3)C3(C)CN(C)C3)c2)nn1C(C)C [Example 41, (R)-(1,3-Dimethyl-azetidin-3-yl)-(4-isopropyl-phenyl)-[5-(1-isopropyl-5-propyl-1H-[1,2,4]triazol-3-yl)-pyridin-3-yl]-methanol] |
| 200 | CC(C)c1ccc([C@](O)(c2cncc(-c3nc(C4CCN(C)C(=O)C4)n(C(C)C)n3)c2)C2(C)CN(C)C2)cc1 (stereo partly drawn) [Example 42, 4-(5-{5-[(R)-(1,3-Dimethyl-azetidin-3-yl)-hydroxy-(4-isopropyl-phenyl)-methyl]-pyridin-3-yl}-2-isopropyl-2H-[1,2,4]triazol-3-yl)-1-methyl-piperidin-2-one] |
